Data: publication PMC7269146, “Jingzhaotoxin-X, a gating modifier of Kv4.2 and Kv4.3 potassium channels purified from the venom of the Chinese tarantula Chilobrachys jingzhao” (The Journal of Venomous Animals and Toxins Including …, 2020)
Where a SMILES comes first, the peptide text is derived from it. Bridges are numbered along the chain shown (N, C = ends).

System: Kv1.3
Assay: microelectrode voltage-clamp, Xenopus laevis oocytes, Kv1.3
Assay type: cell-based
Conditions: 10 μM, 300-ms depolarization to +20 mV from -90 mV, pH 7.5, 19-23°C, n = 3
Description: Briefly, plasmids were linearized, and transcription was carried out according to the standardized protocol. Afterwards, the capped cRNAs that encoded the related ion channels were prepared. To conduct transcription in vitro, firstly, NotL was utilized to linearize plasmids pCI that contained both Kv1.1 (Accession: NM_010595.3) and Kv2.1 (Accession: AF026005.1), whereas SphI was adopted to linearize plasmid PcDNA3 containing Kv1.2 (Accession: NM_012970.3) gene. […] Thereafter, the linearized plasmids were used as the templates to synthesize cRNAs in vitro using the large-scale T7 mMESSAGE mMACHINE transcription kit (Ambion, USA).
A mature female X. laevis was placed on the ice for anesthesia, and then the Xenopus laevis oocytes at stage IV-VI were extracted. Subsequently, those extracted oocytes were treated by collagenase (1 mg/mL) contained within the calcium-depleted ND96 solution (containing 96 mM NaCl, 10 mM HEPES, 1 mM MgCl2, and 2 mM KCl) for defolliculation. […]
Firstly, the effects of JZTX-X on the isoforms of potassium channels (including Kv1.1-1.3, Kv2.1, as well as Kv4.2-4.3) contained within the X. laevis oocytes were investigated through the microelectrode voltage-clamp approach. […] We also determined the effects of JZTX-X on Ito potassium channels in rat DRG neurons; those current amplitudes were inhibited by 54.4±6.8% when 500 nM JZTX-X was applied (Fig. 3K, n = 5).

**Q.** How did the “inhibition of Kv1.3 current” value turn out when CC(C)C[C@@H]1NC(=O)[C@H](CCCCN)NC(=O)[C@H](Cc2ccc(O)cc2)NC(=O)[C@@H]2CSSC[C@@H]3NC(=O)[C@H](Cc4ccc(O)cc4)NC(=O)[C@H](Cc4ccccc4)NC(=O)CNC(=O)[C@H](C)NC(=O)[C@H](CSSC[C@H](NC(=O)[C@@H](N)CC(C)C)C(=O)N[C@@H](CO)C(=O)N[C@@H](CCCNC(=N)N)C(=O)N[C@@H](CCC(=O)O)C(=O)NCC(=O)N[C@@H](CCC(=O)O)C(=O)N[C@@H](Cc4ccccc4)C(=O)N2)NC(=O)[C@H](CSSC[C@@H](C(=O)N[C@@H](Cc2ccc(O)cc2)C(=O)N[C@@H](CCCNC(=N)N)C(=O)N[C@@H](CC(N)=O)C(=O)O)NC(=O)[C@H](Cc2c[nH]cn2)NC(=O)[C@H](CC(C)C)NC(=O)[C@H](C(C)C)NC(=O)[C@H](Cc2ccccc2)NC(=O)[C@H](C)NC(=O)[C@H](CCCCN)NC3=O)NC(=O)[C@H](CCCCN)NC(=O)[C@H](CCCNC(=N)N)NC1=O [JZTX-X, Jingzhaotoxin-X] (H-LCSREGEFCYKLRKCCAGFYCKAFVLHCYRN-OH; disulfide 2-16, 9-21, 15-28; N-terminus assumed) was run?
**A.** less than 5%
